Consider 12 molecules from ChEMBL document CHEMBL1131823, “Triterpene and diterpene inhibitors of pyruvate dehydrogenase kinase (PDK)” (Bioorg Med Chem Lett, 1999).

In test [1] the target is Pyruvate dehydrogenase kinase (Homo sapiens, UniProt Q15119+Q15120+Q16654+Q15118). The test can be described thus: In vitro inhibitory activity against pyruvate dehydrogenase kinase was determined. The format is protein assay.
Another test is filed under the species Homo sapiens. In words: In vitro effective concentration in normal human dermal fibroblasts; Inactive. The format is functional.
Test [2] has as its system Mus musculus. The test can be described thus: In vivo activity in a diabetic mouse at a dose of 100 umol/kg/day on day 3 after 2 hr. Type of test: functional.
For test [3], the system named is Mus musculus. In words: In vivo activity in a diabetic mouse at a dose of 100 umol/kg/day on day1 after 2 hr. Type of test: functional.
Test [4] deals with Mus musculus. The test can be described thus: In vivo activity in a diabetic mouse at a dose of 100 umol/kg/day on day1 after 6 hr. Type of test: functional.
Test [5] relates to Mus musculus. The test can be described thus: In vivo activity in a diabetic mouse at a dose of 100 umol/kg/day on day1 after 4 hr. The format is functional.
The subject of test [6] is Mus musculus. In words: In vivo activity in a diabetic mouse at a dose of 100 umol/kg/day on day 3 after 6 hr. Type of test: functional.
Test [7] has as its system Mus musculus. The test can be described thus: In vivo activity in a diabetic mouse at a dose of 100 umol/kg/day on day 3 after 4 hr. The format is functional.
The test system of test [8] is Rattus norvegicus. In words: Effect on blood glucose level after 2 hours of oral administration of compound at a dose of 300 umol/kg. The format is functional.
Test [9] has as its system Rattus norvegicus. The test can be described thus: Effect on blood lactate level after 2 hours of oral administration of compound at a dose of 300 umol/kg. The format is functional.
Test [10] deals with Rattus norvegicus. In words: Effect on blood lactate level after 4 hours of oral administration of compound at a dose of 300 umol/kg. Type of test: functional.
Test [11] relates to Mus musculus. In words: In vivo activity in a diabetic mouse at a dose of 300 umol/kg/day on day 3 after 2 hr. The format is functional.
The test system of test [12] is Mus musculus. The test can be described thus: In vivo activity in a diabetic mouse at a dose of 30 umol/kg/day on day1 after 2 hr. The format is functional.
In test [13] the test system is Mus musculus. In words: In vivo activity in a diabetic mouse at a dose of 30 umol/kg/day on day 3 after 4 hr. Type of test: functional.
For test [14], the system named is Rattus norvegicus. The test can be described thus: Effect on blood glucose level after 0 hour of oral administration of compound at a dose of 300 umol/kg. Type of test: functional.
Test [15] has as its system Mus musculus. The test can be described thus: In vivo activity in a diabetic mouse at a dose of 30 umol/kg/day on day1 after 4 hr. Type of test: functional.
Test [16] relates to Mus musculus. In words: In vivo activity in a diabetic mouse at a dose of 30 umol/kg/day on day1 after 6 hr. Type of test: functional.
Test [17] has as its system Mus musculus. In words: In vivo activity in a diabetic mouse at a dose of 300 umol/kg/day on day1 after 4 hr. The format is functional.
Test [18] deals with Rattus norvegicus. In words: Effect on blood glucose level after 4 hours of oral administration of compound at a dose of 300 umol/kg. Type of test: functional.
Test [19] has as its system Mus musculus. The test can be described thus: In vivo activity in a diabetic mouse at a dose of 300 umol/kg/day on day 3 after 6 hr. The format is functional.
In test [20] the test system is Mus musculus. In words: In vivo activity in a diabetic mouse at a dose of 300 umol/kg/day on day 3 after 4 hr. The format is functional.
Test [21] can be described thus: In vitro effective concentration in normal human dermal fibroblasts. Type of test: functional.
The test system of test [22] is Mus musculus. In words: In vivo activity in a diabetic mouse at a dose of 300 umol/kg/day on day1 after 2 hr. The format is functional.
The subject of test [23] is Mus musculus. The test can be described thus: In vivo activity in a diabetic mouse at a dose of 30 umol/kg/day on day 3 after 6 hr. Type of test: functional.
The subject of test [24] is Rattus norvegicus. The test can be described thus: Effect on blood lactate level after 0 hour of oral administration of compound at a dose of 300 umol/kg. The format is functional.
In test [25] the test system is Mus musculus. In words: In vivo activity in a diabetic mouse at a dose of 30 umol/kg/day on day 3 after 2 hr. Type of test: functional.
For test [26], the system named is Mus musculus. In words: In vivo activity in a diabetic mouse at a dose of 300 umol/kg/day on day1 after 6 hr. The format is functional.
The subject of test [27] is Mus musculus. The test can be described thus: In vivo activity in a diabetic mouse at a dose of 1000 umol/kg/day on day1 after 6 hr. The format is functional.
The test system of test [28] is Mus musculus. In words: In vivo activity in a diabetic mouse at a dose of 1000 umol/kg/day on day 3 after 2 hr. The format is functional.
The test system of test [29] is Mus musculus. The test can be described thus: In vivo activity in a diabetic mouse at a dose of 1000 umol/kg/day on day1 after 2 hours. The format is functional.
Test [30] relates to Mus musculus. The test can be described thus: In vivo activity in a diabetic mouse at a dose of 1000 umol/kg/day on day 3 after 6 hr. The format is functional.
For test [31], the system named is Mus musculus. The test can be described thus: In vivo activity in a diabetic mouse at a dose of 1000 umol/kg/day on day1 after 4 hr. Type of test: functional.
For test [32], the system named is Mus musculus. The test can be described thus: In vivo activity in a diabetic mouse at a dose of 1000 umol/kg/day on day 3 after 4 hr. The format is functional.
For test [33], the system named is Mus musculus. The test can be described thus: In vivo activity in a diabetic mouse at a dose of 200 umol/kg/day on day1 after 4 hr. The format is functional.
In test [34] the test system is Mus musculus. In words: In vivo activity in a diabetic mouse at a dose of 200 umol/kg/day on day 3 after 2 hr. Type of test: functional.
Test [35] deals with Mus musculus. The test can be described thus: In vivo activity in a diabetic mouse at a dose of 200 umol/kg/day on day1 after 2 hr. Type of test: functional.
In test [36] the test system is Mus musculus. The test can be described thus: In vivo activity in a diabetic mouse at a dose of 200 umol/kg/day on day 3 after 4 hr. The format is functional.
Test [37] concerns Mus musculus. The test can be described thus: In vivo activity in a diabetic mouse at a dose of 200 umol/kg/day on day1 after 6 hr. Type of test: functional.
The subject of test [38] is Mus musculus. In words: In vivo activity in a diabetic mouse at a dose of 200 umol/kg/day on day 3 after 6 hr. The format is functional.

As a reminder, the IC50 is the concentration needed to halve the response being measured. Take `C[C@]12CC[C@H]3[C@@H](CCC4=CC(=O)CC[C@@H]43)[C@@H]1CC[C@@H]2O` [NANDROLONE]: in test [1], the concentration for half-maximal inhibition (IC50) stood at 120 µM.

What is called EC50 is the concentration at which the effect is half-maximal. The low end stands for an effect from little substance, the high end for a need for much substance. Turning to `CC(C)C1=CC2=CC[C@H]3[C@](C)(CO)CCC[C@]3(C)[C@H]2CC1`, the EC50 result in the test filed under Homo sapiens is on record as “Not Active”. Moreover, the Efficacy was 7% with Mus musculus [2]; 7% in the test on Mus musculus [3]; 19% in the test with Mus musculus [4]; -8% in the test with Mus musculus [5]; 24% in the test on Mus musculus [6]; 10% with Mus musculus [7]. The half-maximal inhibitory concentration (IC50) in test [1] is given as ~ 10 uM.

Molecule `C[C@]12CC[C@H]3[C@@H](CCC4=C/C(=N/CC(=O)O)CC[C@@H]43)[C@@H]1CC[C@@H]2O` returned an IC50 in test [1] of 56 µM.

Take `C=C=C[C@]1(O)CC[C@H]2[C@@H]3CCC4=C/C(=N/O)CC[C@@H]4[C@H]3CC[C@@]21C`: the Blood glucose was 49.1 mg/dL in the test on Rattus norvegicus [8], 49.5 mg/dL with Rattus norvegicus [14] and 49.3 mg/dL with Rattus norvegicus [18]. The Blood lactate was found to be 0.8 mM in the test with Rattus norvegicus [9], 0.79 mM in the test on Rattus norvegicus [10] and 1.01 mM in the test on Rattus norvegicus [24]. In addition, the Efficacy in the test with Mus musculus [11] is on record as 92%; in the test with Mus musculus [12], -6%; in the test on Mus musculus [2], 73%; with Mus musculus [3], 3%; in the test with Mus musculus [13] it was 43%; with Mus musculus [15], -3%. The Efficacy in the test with Mus musculus [16] is 2%; in the test on Mus musculus [17] it was 19%; in the test with Mus musculus [19] it was 75%; in the test on Mus musculus [20], 83%; with Mus musculus [22], -2%; in the test on Mus musculus [23], -6%. The Efficacy with Mus musculus [4] came to 26%; in the test on Mus musculus [25], 38%; with Mus musculus [5], 4%; with Mus musculus [6], 47%; in the test with Mus musculus [7], 70%; in the test with Mus musculus [26], 51%. Further, the half-maximal effective concentration (EC50) entry in the test listed under Homo sapiens was “Not Active”; in test [21] it was 1.7 µM. The molecule also registered an IC50 in test [1] of 0.84 µM.

As for `O=C(O)C(Cl)Cl` [DICHLOROACETIC ACID], the Efficacy with Mus musculus [27] turned out to be 29%; with Mus musculus [28], 52%; in the test with Mus musculus [29], 59%; with Mus musculus [30], 56%; in the test with Mus musculus [31] it was 39%; in the test with Mus musculus [32] it was 50%. In addition, the EC50 in [21] stood at 100 µM.

`CC(C)C1=CC2=CC[C@@H]3[C@](C)(CCC[C@@]3(C)C(=O)O)[C@H]2CC1` [ABIETIC ACID]: the concentration for a half-maximal effect (EC50) entry in the test filed under Homo sapiens is “Not Active”. In addition, the Efficacy with Mus musculus [33] was 25%; in the test on Mus musculus [34], 24%; with Mus musculus [35], 45%; in the test with Mus musculus [36], 22%; with Mus musculus [37] it was 42%; with Mus musculus [38], 29%. This molecule also returned an IC50 in test [1] of 20 µM.

The molecule `C[C@]12CC/C(=N\O)C[C@H]1CC[C@@H]1[C@@H]2CC[C@]2(C)[C@@H](O)CC[C@@H]12` came in with a half-inhibitory concentration (IC50) in test [1] of 36 µM.

Take `C[C@]12CC/C(=N\O)C[C@@H]1CC[C@@H]1[C@@H]2CC[C@]2(C)[C@@H](O)CC[C@@H]12`: the concentration for half-maximal inhibition (IC50) in [1] amounted to 51 µM.

`CC(C)c1ccc2c(c1)CC[C@H]1[C@](C)(CN)CCC[C@]21C`: the Efficacy in the test on Mus musculus [11] was 85%; in the test with Mus musculus [12] it was 18%; in the test with Mus musculus [2], 26%; in the test on Mus musculus [3], 30%; with Mus musculus [13], 2%; in the test on Mus musculus [15], -1%. The Efficacy in the test on Mus musculus [16] stood at 11%; in the test with Mus musculus [17] it was 69%; in the test on Mus musculus [19], 90%; in the test with Mus musculus [20], 86%; with Mus musculus [22] it was 68%; with Mus musculus [23], 19%. The Efficacy in the test with Mus musculus [4] is given as 22%; in the test on Mus musculus [25], -4%; in the test with Mus musculus [5], 28%; with Mus musculus [6] it was 47%; in the test on Mus musculus [7], 36%; in the test on Mus musculus [26] it was 65%. Further, the EC50 entry in the test listed under Homo sapiens is “Not Active”. In test [1], this molecule returned a half-maximal inhibitory concentration (IC50) of 9.5 µM.

In test [1], `C[C@]12CC[C@H]3[C@@H](CCC4=C/C(=N/O)CC[C@@H]43)[C@@H]1CC[C@@H]2O` gave an IC50 of 5.4 µM.

Regarding `CC(C)C1=CC2=CC[C@@H]3[C@](C)(CCC[C@@]3(C)C(N)=O)[C@H]2CC1`, the 50% effective concentration (EC50) entry in the test filed under Homo sapiens is “Not Active”. Moreover, the Efficacy with Mus musculus [33] is recorded as -2%; in the test with Mus musculus [34], 13%; with Mus musculus [35], 4%; in the test on Mus musculus [36], 9%; in the test with Mus musculus [37] it was 16%; with Mus musculus [38], 16%. The half-maximal inhibitory concentration (IC50) in [1] amounted to 6.7 µM.

In test [1], `C#C[C@]1(O)CC[C@H]2[C@@H]3CCC4=C/C(=N/O)CC[C@@H]4[C@H]3CC[C@@]21C` came in with a concentration for half-maximal inhibition (IC50) of 5.8 µM.
